Experimental data published in US7163941B2, “Pyrido[2,3-d]pyrimidin-7-carboxylic acid derivatives, their manufacture and use as pharmaceutical agents” (Hoffmann-La Roche Inc., priority 2003, dated 2007).

Tests used:
[1] = molecular target: T1, Src (p60^c-src, partially purified) (Homo sapiens, UniProt P12931); test: SRC-Inhibitor-Assay (time-resolved fluorescence), Src enzyme; assay type: biochemical; details: ATP 5 μM, peptide 10 μM, enzyme 2.5 U/ml, pre-incubation 15 min at 15° C.
T1 construct: purchased Upstate (UBI)
Experimental: (§1) The activity of the compounds according to this invention as inhibitors for the src-family tyrosine kinases was shown by using the following assay.
(§2) SRC-Inhibitor-Assay Parameters:
(§3) • Reaction mixture: • ATP 5 μM • Peptide (R+Ja133-Ro): 10 μM • Ja133-Ro 196 nM • Ro 9.8 μM • PT66 230 ng/ml • Assay buffer: 4 mM MgCl2 • 2 mM TCEP • 50 mM HEPES • 0,1% Tween 20 • pH 7.3 • Enzyme: 2.5 U/ml • Inhibitor: max. 25 μM • min. 0.42 nM Material: • Eu-labelled phosphotyrosine antibody: -for Lck Cisbio Mab PT66-K, • for Src EG&G Wallac PT66 Eu-W1024 (all commercially available). • Peptides: Ro: NH2-A-E-E-E-I-Y-G-E-F-E-A-K-K-K-K-CONH2 (SEQ ID NO: 1), and • Ja133-Ro: Ja133-G-Aminocaprylic acid-A-E-E-E-I-Y-G-E-F-E-A-K-K-K-K-CONH2 (SEQ ID NO: 2), wherein Ja133 is LightCycler-Red 640-N-hydroxy succinimide ester; • whereby both peptides were synthesized by an optimized solid phase peptide synthesis protocol (Merrifield, Fed. Proc. Fed. Amer. Soc. Exp. Biol. 21 (1962) 412) on a Zinsser SMP350 peptide synthesizer. Shortly, the peptide was assembled on 160 mg (22.8 μmol scale) of a Rink-Linker modified polystyrene solid phase by repeatedly conjugating an twenty fold excess of aminoacids each protected by temporary piperidine labile Fmoc- and permanent acid labile tert-Bu-, BOC- and Otert-Bu-groups depending on the side chain function. The substrate sequence AEEEIYGEFEAKKKK (SEQ ID NO: 1) was N-terminal additionally mounted with the spacer amino acids Aminocaprylic acid and Glycin. After cleavage of the N-terminal temporary protecting group the still attached and protected peptide was labeled with a 1.5 fold amount of LightCycler-Red 640-N-hydroxy succinimide ester (purchased by Roche Diagnostics GmbH) and triethylamine. After 3 hrs. the resin was washed with Dimethylformamide and Isopropanol until the eluates of the blue resin got colo-rless. […] The substrate was finally isolated by a preparative reverse phase HPLC purification. The purification yielded 12.2 mg RP-HPLC single peak pure blue material (lyophilisate). The identity was proven by MALDI mass spectroscopy [2720.0]. • Enzymes: Upstate Lck (p56^lck, active), Upstate Src (p60^c-src, partially purified) were purchased from UBI. • Time-resolved Fluorescence Assay: Reader: Perkin Elmer, Wallac Viktor 1420-040 multilabel counter; Liquid handling system: Beckman Coulter, Biomek 2000. ATP, Tween 20, HEPES were purchased from Roche Molecular Biochemicals, MgCl2 and MnCl2 were purchased from Merck Eurolab, TCEP was purchased from Pierce, 384 Well low volume fluorescence plates was purchased from Falcon. Assay Description:
(§4) At first the enzyme is pre-incubated for 15 min. at 15° C. in aqueous solution with corresponding amounts of inhibitors according to this invention. Then the phosphorylation reaction is started by adding a reaction mixture, containing ATP, Peptide and PT66, and subsequent shaking. The proceeding of this reaction is immediately monitored using time resolved fluorescence spectroscopy in a suitable well plate reader.
(§5) The IC50-values can be obtained from the reaction rates by using a non-linear curve fit (Excelfit).

Lck (p56^lck, active) = molecular target: T2, Lck (p56^lck, active) (Homo sapiens, UniProt P06239); test: SRC-Inhibitor-Assay (time-resolved fluorescence), Lck enzyme; assay type: biochemical; details: ATP 5 μM, peptide 10 μM, enzyme 2.5 U/ml, pre-incubation 15 min at 15° C.
T2 construct: purchased Upstate (UBI)
Experimental: as §1, §2, §3, §4, §5

T2 sequence (P06239 whole entry, species assumed): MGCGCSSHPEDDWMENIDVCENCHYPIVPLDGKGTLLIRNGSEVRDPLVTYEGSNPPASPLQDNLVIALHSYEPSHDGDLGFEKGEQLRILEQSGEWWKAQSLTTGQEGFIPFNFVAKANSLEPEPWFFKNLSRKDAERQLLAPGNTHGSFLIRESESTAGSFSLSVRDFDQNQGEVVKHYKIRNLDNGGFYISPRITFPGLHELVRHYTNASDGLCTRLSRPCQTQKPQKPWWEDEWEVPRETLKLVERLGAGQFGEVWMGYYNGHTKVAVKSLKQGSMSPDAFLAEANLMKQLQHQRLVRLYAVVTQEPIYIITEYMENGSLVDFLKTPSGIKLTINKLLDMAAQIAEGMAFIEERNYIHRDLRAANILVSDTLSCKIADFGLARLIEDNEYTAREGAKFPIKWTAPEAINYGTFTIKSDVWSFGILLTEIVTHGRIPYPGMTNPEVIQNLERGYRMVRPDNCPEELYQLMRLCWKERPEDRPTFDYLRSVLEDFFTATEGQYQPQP
T1 sequence (P12931 whole entry, species assumed): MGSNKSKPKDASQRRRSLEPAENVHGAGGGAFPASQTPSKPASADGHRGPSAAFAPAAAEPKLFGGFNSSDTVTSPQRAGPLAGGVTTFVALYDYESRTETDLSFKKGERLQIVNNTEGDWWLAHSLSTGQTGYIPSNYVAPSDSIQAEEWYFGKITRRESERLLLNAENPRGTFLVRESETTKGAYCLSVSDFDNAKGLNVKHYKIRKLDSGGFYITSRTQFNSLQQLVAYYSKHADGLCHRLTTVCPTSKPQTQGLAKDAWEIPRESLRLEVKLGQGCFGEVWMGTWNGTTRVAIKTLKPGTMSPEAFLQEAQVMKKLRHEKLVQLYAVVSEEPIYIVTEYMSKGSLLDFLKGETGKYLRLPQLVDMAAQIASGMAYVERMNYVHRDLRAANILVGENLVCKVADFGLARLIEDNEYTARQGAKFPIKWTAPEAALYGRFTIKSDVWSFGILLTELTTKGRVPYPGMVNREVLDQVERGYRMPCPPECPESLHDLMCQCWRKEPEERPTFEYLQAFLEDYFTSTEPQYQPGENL

SMILES	IC50 [1] [nM]	IC50 (Lck (p56^lck, active)) [nM]
CN(C)CC(=O)NNC(=O)c1nc2nc(Nc3ccc(F)cc3)ncc2cc1-c1ccccc1Br [Example 3-46, 6-(2-Bromo-phenyl)-2-(4-fluoro-phenylamino)-pyrido[2,3-d]pyrimidine-7-carboxylic acid N′-(2-dimethylamino-acetyl)-hydrazide]	16.8	38.1
O=C(N[C@H]1CCCNC1)c1nc2nc(Nc3ccc(F)cc3)ncc2cc1-c1ccccc1Br [Example 3-47, (S)-6-(2-Bromo-phenyl)-2-(4-fluoro-phenylamino)-pyrido[2,3-d]pyrimidine-7-carboxylic acid piperidin-3-ylamide]	6.6	27.5
O=C(NC[C@H]1CCCN1)c1nc2nc(Nc3ccc(F)cc3)ncc2cc1-c1ccccc1Br [Example 3-48, (R)-6-(2-Bromo-phenyl)-2-(4-fluoro-phenylamino)-pyrido[2,3-d]pyrimidine-7-carboxylic acid (pyrrolidin-2-ylmethyl)-amide]	2.1	38.1
O=C(Nc1cc[nH]n1)c1nc2nc(Nc3ccc(F)cc3)ncc2cc1-c1ccccc1Br [Example 3-49, 6-(2-Bromo-phenyl)-2-(4-fluoro-phenylamino)-pyrido[2,3-d]pyrimidine-7-carboxylic acid (1H-pyrazol-3-yl)-amide]	4.3	7.3
N#Cc1nc2nc(Nc3ccc(N4CCOCC4)cc3)ncc2cc1-c1ccccc1Br [Example 4-1, 6-(2-Bromo-phenyl)-2-(4-morpholin-4-yl-phenylamino)-pyrido[2,3-d]pyrimidine-7-carbonitrile; compound with trifluoro-acetic acid]	6.5	20.1
CCN(CC)CCOc1ccc(Nc2ncc3cc(-c4ccccc4Br)c(C#N)nc3n2)cc1 [Example 4-2, 6-(2-Bromo-phenyl)-2-[4-(2-diethylamino-ethoxy)-phenylamino]-pyrido[2,3-d]pyrimidine-7-carbonitrile]	1.8	5.1
N#Cc1nc2nc(Nc3ccc(OCCO)cc3)ncc2cc1-c1ccccc1Br [Example 4-3, 6-(2-Bromo-phenyl)-2-[4-(2-hydroxy-ethoxy)-phenylamino]-pyrido[2,3-d]pyrimidine-7-carbonitrile]	4.5	49.9
CCNCCOc1ccc(Nc2ncc3cc(-c4ccccc4Br)c(C#N)nc3n2)cc1 [Example 4-4, 6-(2-Bromo-phenyl)-2-[4-(2-ethylamino-ethoxy)-phenylamino]-pyrido[2,3-d]pyrimidine-7-carbonitrile]	1.1	4.2
C[S+]([O-])c1cccc(Nc2ncc3cc(-c4ccccc4Br)c(C#N)nc3n2)c1 (stereo not drawn) [Example 4-5, 6-(2-Bromo-phenyl)-2-(3-methanesulfinyl-phenylamino)-pyrido[2,3-d]pyrimidine-7-carbonitrile]	3.5	52.1
N#Cc1nc2nc(Nc3cccc(S(=O)(=O)CCO)c3)ncc2cc1-c1ccccc1Br [Example 4-6, 6-(2-Bromo-phenyl)-2-[3-(2-hydroxy-ethanesulfonyl)-phenylamino]-pyrido[2,3-d]pyrimidine-7-carbonitrile]	16.2	99.7
O=C(NCCO)c1nc2nc(Nc3cccc(CO)c3)ncc2cc1-c1ccccc1Br [Example 7-4, 6-(2-bromo-phenyl)-2-(3-hydroxymethyl-phenylamino)-pyrido[2,3-d]pyrimidine-7-carboxylic acid (2-hydroxy-ethyl)-amide]	30.9	99.1
NS(=O)(=O)CCNC(=O)c1nc2nc(Nc3ccc4c(c3)S(=O)(=O)CCO4)ncc2cc1-c1ccccc1Br [Example 7-13, 6-(2-bromo-phenyl)-2-(4,4-dioxo-3,4-dihydro-2H-4lambda*6*-benzo[1,4]oxathiin-6-ylamino)-pyrido[2,3-d]pyrimidine-7-carboxylic acid (2-sulfamoyl-ethyl)-amide]	11.3	232
CS(=O)(=O)NCCNC(=O)c1nc2nc(Nc3ccc(N4CCOCC4)cc3)ncc2cc1-c1ccccc1Br [Example 7-15, 6-(2-bromo-phenyl)-2-(4-morpholin-4-yl-phenylamino)-pyrido[2,3-d]pyrimidine-7-carboxylic acid (2-methanesulfonylamino-ethyl)-amide]	0.4	11.4
CS(=O)(=O)NCCNC(=O)c1nc2nc(Nc3cccc(NS(C)(=O)=O)c3)ncc2cc1-c1ccccc1Br [Example 7-17, 6-(2-bromo-phenyl)-2-(3-methanesulfonylamino-phenylamino)-pyrido[2,3-d]pyrimidine-7-carboxylic acid (2-methanesulfonylamino-ethyl)-amide]	3.5	11.8
CS(=O)(=O)NCCNC(=O)c1nc2nc(Nc3ccc(OCCO)cc3)ncc2cc1-c1ccccc1Br [Example 7-18, 6-(2-bromo-phenyl)-2-[4-(2-hydroxy-ethoxy)-phenylamino]-pyrido[2,3-d]pyrimidine-7-carboxylic acid (2-methanesulfonylamino-ethyl)-amide]	8.8	18.8
CN1CCN(c2ccc(Nc3ncc4cc(-c5ccccc5Br)c(C(=O)NCCNS(C)(=O)=O)nc4n3)cc2)CC1 [Example 7-19, 6-(2-bromo-phenyl)-2-[4-(4-methyl-piperazin-1-yl)-phenylamino]-pyrido[2,3-d]pyrimidine-7-carboxylic acid (2-methanesulfonylamino-ethyl)-amide]	1	2.1
COc1cccc(Nc2ncc3cc(-c4ccccc4Br)c(C(=O)NCCNS(C)(=O)=O)nc3n2)c1 [Example 7-20, 6-(2-bromo-phenyl)-2-(3-methoxy-phenylamino)-pyrido[2,3-d]pyrimidine-7-carboxylic acid (2-methanesulfonylamino-ethyl)-amide]	6.1	11.1
CC(=O)Nc1cccc(Nc2ncc3cc(-c4ccccc4Br)c(C(=O)NCCNS(C)(=O)=O)nc3n2)c1 [Example 7-21, 2-(3-acetylamino-phenylamino)-6-(2-bromo-phenyl)-pyrido[2,3-d]pyrimidine-7-carboxylic acid (2-methanesulfonylamino-ethyl)-amide]	1.8	12
CS(=O)(=O)NCCNC(=O)c1nc2nc(Nc3ccc4c(c3)S(=O)(=O)CCO4)ncc2cc1-c1ccccc1Br [Example 7-22, 6-(2-bromo-phenyl)-2-(4,4-dioxo-3,4-dihydro-2H-4lambda*6*-benzo[1,4]oxathiin-6-ylamino)-pyrido[2,3-d]pyrimidine-7-carboxylic acid (2-methanesulfonylamino-ethyl)-amide]	5	37
CS(=O)(=O)NCCNC(=O)c1nc2nc(Nc3cccc(SCCO)c3)ncc2cc1-c1ccccc1Br [Example 7-23, 6-(2-bromo-phenyl)-2-[3-(2-hydroxy-ethylsulfanyl)-phenylamino]-pyrido[2,3-d]pyrimidine-7-carboxylic acid (2-methanesulfonylamino-ethyl)-amide]	1	6.1
CS(=O)(=O)NCCNC(=O)c1nc2nc(Nc3ccc4c(c3)OC(CO)CO4)ncc2cc1-c1ccccc1Br (stereo not drawn) [Example 7-24, 6-(2-bromo-phenyl)-2-(3-hydroxymethyl-2,3-dihydro-benzo[1,4]dioxin-6-ylamino)-pyrido[2,3-d]pyrimidine-7-carboxylic acid (2-methanesulfonylamino-ethyl)-amide]	4	9
